Measurements from article PMC3726482 (PLoS ONE, 2013).

Experiments:
Format in all cases: biochemical
CyaA-N [1] = biological target: T1, CyaA-N (Bordetella pertussis, UniProt P0DKX7); settings: read-out: CyaA-N / KM
T1 construct: gene cya; catalytic domain, amino acids 1 to 373; plasmid pExCyaA-N; purified from E. coli; assayed with calf brain calmodulin; with Calmodulin

EF (edema factor) = biological target: T2, EF (edema factor) (Bacillus anthracis, UniProt P40136); settings: read-out: EF / KM
T2 construct: gene cya
T2 sequence (P40136 whole entry, looked up): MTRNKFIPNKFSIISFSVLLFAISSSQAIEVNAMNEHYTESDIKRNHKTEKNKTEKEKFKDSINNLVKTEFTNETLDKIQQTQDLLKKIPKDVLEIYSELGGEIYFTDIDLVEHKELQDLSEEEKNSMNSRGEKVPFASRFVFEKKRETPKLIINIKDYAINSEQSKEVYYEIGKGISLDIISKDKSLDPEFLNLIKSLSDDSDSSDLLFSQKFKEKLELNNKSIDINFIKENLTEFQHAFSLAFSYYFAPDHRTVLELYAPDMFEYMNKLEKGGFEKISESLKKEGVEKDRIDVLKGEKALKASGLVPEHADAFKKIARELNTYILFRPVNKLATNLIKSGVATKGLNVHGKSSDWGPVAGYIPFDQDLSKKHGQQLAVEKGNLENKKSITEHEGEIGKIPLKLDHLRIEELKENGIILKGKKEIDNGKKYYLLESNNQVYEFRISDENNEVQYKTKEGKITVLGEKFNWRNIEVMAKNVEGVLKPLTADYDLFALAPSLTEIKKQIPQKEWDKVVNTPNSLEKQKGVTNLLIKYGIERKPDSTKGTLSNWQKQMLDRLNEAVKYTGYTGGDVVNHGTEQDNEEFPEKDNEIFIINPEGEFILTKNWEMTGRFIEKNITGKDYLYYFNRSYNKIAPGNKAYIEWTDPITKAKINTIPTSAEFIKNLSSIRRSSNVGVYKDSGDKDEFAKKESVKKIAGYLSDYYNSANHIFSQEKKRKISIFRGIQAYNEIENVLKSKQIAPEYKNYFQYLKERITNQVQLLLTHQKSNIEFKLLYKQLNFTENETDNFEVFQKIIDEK

CyaA-N [2] = biological target: T1, CyaA-N

T1 sequence (P0DKX7 whole entry, looked up, the tested form may be a part): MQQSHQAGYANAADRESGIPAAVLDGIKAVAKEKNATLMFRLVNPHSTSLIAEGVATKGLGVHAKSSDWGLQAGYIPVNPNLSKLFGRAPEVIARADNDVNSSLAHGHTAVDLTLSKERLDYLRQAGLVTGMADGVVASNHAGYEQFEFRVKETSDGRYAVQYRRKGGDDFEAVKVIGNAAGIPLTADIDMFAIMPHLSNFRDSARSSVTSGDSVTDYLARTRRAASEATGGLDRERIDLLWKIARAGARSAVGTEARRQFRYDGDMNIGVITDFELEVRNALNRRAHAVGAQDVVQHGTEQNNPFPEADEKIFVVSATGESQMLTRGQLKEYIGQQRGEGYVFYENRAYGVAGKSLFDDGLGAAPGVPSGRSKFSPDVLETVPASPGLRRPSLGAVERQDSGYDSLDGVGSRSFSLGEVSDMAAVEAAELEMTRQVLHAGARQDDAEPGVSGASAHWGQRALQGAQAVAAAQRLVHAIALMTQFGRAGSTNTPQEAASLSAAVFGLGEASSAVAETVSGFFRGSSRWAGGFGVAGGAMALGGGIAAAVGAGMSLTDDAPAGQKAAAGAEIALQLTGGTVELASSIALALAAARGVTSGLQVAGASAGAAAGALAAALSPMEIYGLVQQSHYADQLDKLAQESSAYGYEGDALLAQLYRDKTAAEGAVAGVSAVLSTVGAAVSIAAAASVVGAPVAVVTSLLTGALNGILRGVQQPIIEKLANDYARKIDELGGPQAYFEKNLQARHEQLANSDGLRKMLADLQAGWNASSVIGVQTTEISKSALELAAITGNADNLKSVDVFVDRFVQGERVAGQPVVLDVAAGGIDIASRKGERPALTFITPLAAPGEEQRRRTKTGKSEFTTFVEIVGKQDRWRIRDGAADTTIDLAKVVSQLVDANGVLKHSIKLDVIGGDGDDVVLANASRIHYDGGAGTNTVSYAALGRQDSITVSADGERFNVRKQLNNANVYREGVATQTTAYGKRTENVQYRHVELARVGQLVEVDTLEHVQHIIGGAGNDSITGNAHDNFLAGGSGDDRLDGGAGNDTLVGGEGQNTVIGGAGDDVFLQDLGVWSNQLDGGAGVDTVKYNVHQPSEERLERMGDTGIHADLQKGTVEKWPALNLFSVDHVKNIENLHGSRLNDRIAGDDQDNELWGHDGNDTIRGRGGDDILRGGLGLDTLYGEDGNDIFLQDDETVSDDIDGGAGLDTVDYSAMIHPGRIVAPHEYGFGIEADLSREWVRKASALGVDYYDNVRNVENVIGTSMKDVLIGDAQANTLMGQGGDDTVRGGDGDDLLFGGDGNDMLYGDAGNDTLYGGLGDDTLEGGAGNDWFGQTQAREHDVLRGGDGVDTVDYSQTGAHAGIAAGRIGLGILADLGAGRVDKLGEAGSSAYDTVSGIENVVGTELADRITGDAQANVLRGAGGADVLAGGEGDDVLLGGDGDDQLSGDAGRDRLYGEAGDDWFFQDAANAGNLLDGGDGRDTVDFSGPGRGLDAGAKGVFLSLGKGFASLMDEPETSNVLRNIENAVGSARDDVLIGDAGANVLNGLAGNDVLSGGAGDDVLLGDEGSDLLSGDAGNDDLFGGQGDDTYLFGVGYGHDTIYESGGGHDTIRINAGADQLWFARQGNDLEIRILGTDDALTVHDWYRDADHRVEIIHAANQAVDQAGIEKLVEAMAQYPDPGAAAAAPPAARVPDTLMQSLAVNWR

SMILES | Km (CyaA-N [1]) [µM] | Km (EF (edema factor)) [µM] | CyaA-N / KM (CyaA-N [2]) [µM]
O=P(O)(O)OP(=O)(O)OP(=O)(O)OC[C@H]1O[C@@H](n2cnc3c(O)ncnc32)[C@H](O)[C@@H]1O [ITP] | 329 ± 44 | 507 ± 108 | –
Nc1nc2c(ncn2[C@@H]2O[C@H](COP(=O)(O)OP(=O)(O)OP(=O)(O)O)[C@@H](O)[C@H]2O)c(=O)[nH]1 [GTP] | 191 ± 25 | 85 ± 13 | –
Nc1ccn([C@@H]2O[C@H](COP(=O)(O)OP(=O)(O)OP(=O)(O)O)[C@@H](O)[C@H]2O)c(=O)n1 [CTP] | 475 ± 139 | 367 ± 116 | –
O=c1ccn([C@@H]2O[C@H](COP(=O)(O)OP(=O)(O)OP(=O)(O)O)[C@@H](O)[C@H]2O)c(=O)[nH]1 [UTP] | 599 ± 59 | 792 ± 299 | –
O=c1[nH]c(=O)c2ncn([C@@H]3O[C@H](COP(=O)(O)OP(=O)(O)OP(=O)(O)O)[C@@H](O)[C@H]3O)c2[nH]1 [XTP] | 37 ± 7 | – | 309 ± 57
Nc1ncnc2c1ncn2[C@@H]1O[C@H](COP(=O)(O)OP(=O)(O)OP(=O)(O)O)[C@@H](O)[C@H]1O [ATP] | 171 ± 22.8 | 78.1 ± 8.7 | –
Cc1cn([C@H]2C[C@H](O)[C@@H](COP(=O)(O)OP(=O)(O)OP(=O)(O)O)O2)c(=O)[nH]c1=O [TTP] | 19 ± 5 | – | 1332 ± 365
